Results reported in article PMC2854587 (Nature, 2008).

Target: T1, SrfTEII (surfactin type II thioesterase; SrfD, external thioesterase) (Bacillus subtilis, UniProt Q08788)
T1 sequence (Q08788 1-241): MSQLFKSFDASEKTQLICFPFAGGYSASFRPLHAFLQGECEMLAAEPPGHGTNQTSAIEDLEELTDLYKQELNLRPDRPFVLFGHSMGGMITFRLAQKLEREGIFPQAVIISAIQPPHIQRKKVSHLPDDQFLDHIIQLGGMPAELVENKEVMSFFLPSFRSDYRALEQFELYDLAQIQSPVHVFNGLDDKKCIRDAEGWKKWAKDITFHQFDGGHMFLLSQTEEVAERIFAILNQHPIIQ
Experiment: […]-HSQC NMR titration
Format: binding
Conditions: 296 K; 15N-enriched SrfTEII

CCCCCCCCCCCCCC(=O)SCCNC(=O)CCNC(=O)[C@H](O)C(C)(C)COP(=O)(O)OP(=O)(O)OC[C@H]1O[C@@H](n2cnc3c(N)ncnc32)[C@H](O)[C@@H]1OP(=O)(O)O [myristoyl-CoA]
15N-HSQC NMR titration (chemical shift perturbation): Interestingly, myristoyl-CoA also binds to SrfTEII
